The structures appear in SMILES notation.

In assay [1] the target is CDK4/Cyclin D3 (Homo sapiens) (UniProt P11802+P30281). As to the kind of experiment: (§1) Selectivity interaction (Rxn Biology Kinase assay) EUB0001632a CDK4. Type of assay: protein-complex assay. As to conditions: at 10 µM.
Assay [2] concerns the target Cyclin-dependent kinase 4/cyclin D1 (Homo sapiens) (UniProt P11802+P24385). The description is as §1. Type of assay: protein-complex assay. As to conditions: at 10 µM.
In assay [3] the target is Dual specificity protein kinase CLK2 (Homo sapiens, UniProt P49760). As to the kind of experiment: Selectivity interaction (Ambit KINOMEscan and KiNATiv profiling in Jurkat cells) EUB0000090b CLK2. It is filed as cell-based. The settings on record: at 1 µM.
For assay [4], the target named is T1, Serine/threonine-protein kinase TAO3 (Homo sapiens) (UniProt Q9H2K8).
T1 sequence (whole entry): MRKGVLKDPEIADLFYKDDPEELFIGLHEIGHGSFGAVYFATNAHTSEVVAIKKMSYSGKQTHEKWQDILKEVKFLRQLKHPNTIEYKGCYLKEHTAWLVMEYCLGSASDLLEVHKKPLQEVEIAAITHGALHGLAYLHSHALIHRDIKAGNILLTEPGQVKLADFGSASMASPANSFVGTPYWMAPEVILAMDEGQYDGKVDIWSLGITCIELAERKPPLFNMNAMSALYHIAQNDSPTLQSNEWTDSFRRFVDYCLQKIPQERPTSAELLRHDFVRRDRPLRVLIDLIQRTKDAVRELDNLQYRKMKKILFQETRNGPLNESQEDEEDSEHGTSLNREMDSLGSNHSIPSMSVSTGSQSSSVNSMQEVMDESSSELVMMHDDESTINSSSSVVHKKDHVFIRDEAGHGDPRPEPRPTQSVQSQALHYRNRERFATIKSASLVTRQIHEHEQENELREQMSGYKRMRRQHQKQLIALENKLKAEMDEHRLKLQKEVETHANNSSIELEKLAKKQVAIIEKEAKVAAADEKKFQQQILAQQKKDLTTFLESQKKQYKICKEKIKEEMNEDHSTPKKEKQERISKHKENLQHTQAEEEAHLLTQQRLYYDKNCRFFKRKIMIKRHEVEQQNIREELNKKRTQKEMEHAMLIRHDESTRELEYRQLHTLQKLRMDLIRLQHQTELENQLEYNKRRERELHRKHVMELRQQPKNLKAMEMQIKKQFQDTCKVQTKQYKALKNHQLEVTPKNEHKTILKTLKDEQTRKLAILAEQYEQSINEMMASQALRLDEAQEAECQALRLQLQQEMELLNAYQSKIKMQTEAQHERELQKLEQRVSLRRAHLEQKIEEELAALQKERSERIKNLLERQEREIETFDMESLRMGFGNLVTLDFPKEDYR
As to the kind of experiment: Selectivity interaction (KinomeScan (DiscoverX)) EUB0000655a TAOK3. The settings on record: at 10 µM.

Assay [5] concerns the target T2, Mitogen-activated protein kinase kinase kinase 6 (Homo sapiens) (UniProt O95382).
T2 sequence (whole entry): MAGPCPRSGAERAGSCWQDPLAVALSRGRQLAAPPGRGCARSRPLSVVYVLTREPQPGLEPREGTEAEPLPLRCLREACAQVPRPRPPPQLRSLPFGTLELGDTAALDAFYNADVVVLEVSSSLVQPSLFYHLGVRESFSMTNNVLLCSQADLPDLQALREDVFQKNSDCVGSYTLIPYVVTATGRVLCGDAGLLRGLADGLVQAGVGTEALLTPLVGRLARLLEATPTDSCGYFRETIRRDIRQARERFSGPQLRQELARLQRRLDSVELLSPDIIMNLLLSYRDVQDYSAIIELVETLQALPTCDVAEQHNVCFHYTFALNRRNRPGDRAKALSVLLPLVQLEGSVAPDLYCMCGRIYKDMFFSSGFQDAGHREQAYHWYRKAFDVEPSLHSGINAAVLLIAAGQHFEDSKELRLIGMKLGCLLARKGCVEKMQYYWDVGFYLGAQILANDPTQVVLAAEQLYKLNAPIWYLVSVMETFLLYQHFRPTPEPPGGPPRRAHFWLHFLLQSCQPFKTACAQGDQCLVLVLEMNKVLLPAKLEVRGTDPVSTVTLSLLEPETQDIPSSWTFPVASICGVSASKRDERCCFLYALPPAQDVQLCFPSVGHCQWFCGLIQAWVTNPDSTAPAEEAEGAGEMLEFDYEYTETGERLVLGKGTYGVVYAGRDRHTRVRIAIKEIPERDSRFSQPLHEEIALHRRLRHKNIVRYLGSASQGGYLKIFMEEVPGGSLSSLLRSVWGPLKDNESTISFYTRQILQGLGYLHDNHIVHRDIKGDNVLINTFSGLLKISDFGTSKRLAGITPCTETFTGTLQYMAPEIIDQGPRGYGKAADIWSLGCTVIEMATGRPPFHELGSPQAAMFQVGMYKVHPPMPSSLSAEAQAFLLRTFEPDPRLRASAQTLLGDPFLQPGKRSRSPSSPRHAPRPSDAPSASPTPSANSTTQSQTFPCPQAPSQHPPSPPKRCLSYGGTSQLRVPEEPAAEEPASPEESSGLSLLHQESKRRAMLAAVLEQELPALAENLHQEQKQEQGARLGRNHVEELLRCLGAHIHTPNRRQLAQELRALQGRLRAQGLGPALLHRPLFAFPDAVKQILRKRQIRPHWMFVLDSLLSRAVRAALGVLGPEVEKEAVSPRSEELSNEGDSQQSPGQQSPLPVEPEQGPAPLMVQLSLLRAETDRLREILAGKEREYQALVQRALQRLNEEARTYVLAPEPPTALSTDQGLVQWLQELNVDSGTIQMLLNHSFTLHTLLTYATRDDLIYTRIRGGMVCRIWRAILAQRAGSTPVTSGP
As to the kind of experiment: Selectivity interaction (ActivX KiNativ screen (ex vivo kinase selectivity in human PBMCs)) EUB0001619a MAP3K6. It is filed as cell-based. As to conditions: PBMC, at 1 µM.

In assay [6] the target is T3, Testis-specific serine/threonine-protein kinase 1 (Homo sapiens) (UniProt Q9BXA7).
T3 sequence (whole entry): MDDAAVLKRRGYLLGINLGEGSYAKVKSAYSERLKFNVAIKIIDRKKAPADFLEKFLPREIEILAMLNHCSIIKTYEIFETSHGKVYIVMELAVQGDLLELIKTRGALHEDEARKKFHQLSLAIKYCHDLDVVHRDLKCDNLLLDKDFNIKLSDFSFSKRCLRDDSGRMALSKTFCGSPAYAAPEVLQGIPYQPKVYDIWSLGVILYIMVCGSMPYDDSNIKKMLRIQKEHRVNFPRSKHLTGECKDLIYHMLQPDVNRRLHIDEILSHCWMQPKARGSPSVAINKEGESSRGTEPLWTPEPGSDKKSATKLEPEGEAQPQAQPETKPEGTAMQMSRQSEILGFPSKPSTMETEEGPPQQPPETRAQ
As to the kind of experiment: Selectivity interaction (ProQinase) EUB0000171b TSSK1A.

Assay [7] has as its target Dual specificity mitogen-activated protein kinase kinase 1 (Homo sapiens, UniProt Q02750). As to the kind of experiment: Selectivity interaction (KinomeScan (DiscoverX)) EUB0000045b MAP2K1.

Sequence of Dual specificity mitogen-activated protein kinase kinase 1 (Q02750 whole entry): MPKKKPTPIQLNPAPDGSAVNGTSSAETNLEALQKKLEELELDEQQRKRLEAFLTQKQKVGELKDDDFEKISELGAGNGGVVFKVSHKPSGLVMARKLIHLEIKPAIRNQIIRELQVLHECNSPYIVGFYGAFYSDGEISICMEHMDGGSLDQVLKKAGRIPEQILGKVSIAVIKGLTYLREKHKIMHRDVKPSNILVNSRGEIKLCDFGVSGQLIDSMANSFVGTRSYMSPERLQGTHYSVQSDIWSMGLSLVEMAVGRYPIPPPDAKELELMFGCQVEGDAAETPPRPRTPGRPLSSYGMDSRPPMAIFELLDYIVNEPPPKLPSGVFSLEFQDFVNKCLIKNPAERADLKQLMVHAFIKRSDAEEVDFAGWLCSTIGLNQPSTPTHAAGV
Sequence of Dual specificity protein kinase CLK2 (P49760 whole entry, looked up): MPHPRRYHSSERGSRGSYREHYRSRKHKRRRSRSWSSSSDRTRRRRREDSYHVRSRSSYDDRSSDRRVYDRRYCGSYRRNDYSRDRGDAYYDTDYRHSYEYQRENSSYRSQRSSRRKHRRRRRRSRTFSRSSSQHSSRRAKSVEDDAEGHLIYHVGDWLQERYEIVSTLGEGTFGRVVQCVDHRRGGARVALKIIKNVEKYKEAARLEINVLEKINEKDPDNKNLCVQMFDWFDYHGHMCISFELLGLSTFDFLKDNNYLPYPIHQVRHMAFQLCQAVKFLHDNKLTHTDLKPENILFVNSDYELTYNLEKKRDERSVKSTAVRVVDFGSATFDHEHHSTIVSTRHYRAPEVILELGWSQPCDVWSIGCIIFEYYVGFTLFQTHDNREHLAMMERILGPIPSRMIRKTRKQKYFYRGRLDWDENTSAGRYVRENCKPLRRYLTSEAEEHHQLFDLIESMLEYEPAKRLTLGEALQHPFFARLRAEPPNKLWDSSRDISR

Consider `Cn1cc(-n2cnc3c(NCc4nc5cc(Cl)c(Cl)cc5[nH]4)nc(N4CCOCC4)nc32)cn1`, for which the % of inhibition came out at 46.3% in assay [1] and 46.7% in assay [2].
As for `CN(C)C/C=C/C(=O)Nc1ccc(C(=O)N2CCCC(Nc3ncc(Cl)c(-c4c[nH]c5ccccc45)n3)C2)cc1` (centres undefined), in assay [3], the % of control was 55%.
Regarding `CN(C)CCOc1ccc(-c2nc(-c3ccncc3)c(-c3ccc4c(c3)CC/C4=N\O)[nH]2)cc1`, the % of control in assay [4] was found to be 75%.
In assay [5], `N#Cc1cccc(-c2c[nH]c3ncnc(N4CCOCC4)c23)c1` registered a % of inhibition of 21%.
With `C=CC(=O)Nc1cccc(C(=O)Nc2ccc(Nc3cc(-c4[nH]c(SC)nc4C)ccn3)cc2)c1`, the values for the % of control in assay [6] (at 1 µM) and in assay [6] (at 5 µM) were 76% and 72%, respectively.
For `C=CC(=O)Nc1cc(-n2c(=O)ccc3cnc4ccc(-c5ccc(NS(C)(=O)=O)cc5)cc4c32)ccc1C`, the % of control was 100% in assay [7] (at 1 µM) and 65% in assay [7] (at 10 µM).

(Values after ChEMBL document CHEMBL5465560, “Selectivity Literature for EUbOPEN Chemogenomic Library” (2024).)
